# Reference: patent US7250157B2, “Dermatological compositions and methods” (Applied Genetics Incorporated Dermatics, priority 1996, dated 2007)
# Several values for one entry are separate records, joined by “and”; a condition that tells them apart may be missing. Equal values may be shown once. Read-outs that look alike come from different tables or passages of the source.
# How the values were obtained:
# [1] = test system: Cloudman S91 mouse melanoma cell line; assay: Melanin content of S91 cells after treatment with test compound; assay type: cell-based; details: for melanogenesis in S91 cells (in words): PKC inhibitors
# Experimental: The Cloudman S91 mouse melanoma cell line was obtained from American Type Culture Collection (ATCC). […] For testing propylene glycol and analogues for induction of melanogenesis, S91 cells were plated at 10^5 cells/35 mm dish in 10% calf serum. […] Cells were cultured for 6 days at 37° C. in 5% CO2 in a humidified incubator. Following this treatment period, cells were examined microscopically and the portion of dedifferentiated and differentiated cells was estimated.
# Following this microscopic examination, cells were detached from dishes by trypsin. The time required for detachment by trypsin was recorded as an additional indicator of the phenotypic effects of test compounds. For each treatment, a subsample of cells was counted to determine the effects of treatment compounds on cellular proliferation. The remainder of cells were used for determination of melanin content. […] Absorbance of standards and samples was measured at 475 nm. Melanin was expressed as pg melanin/cell.
# [2] = test system: Tyrosinase in normal human epidermal melanocytes (NHEM); assay: Tyrosinase in NHEM (in situ, cellular, extracellular particulate, media); assay type: cell-based
# Experimental: Tyrosinase was measured in normal human epidermal melanocytes (NHEM) using procedures identical to those described for S91 cells (Example 6), […], 1600×g, or 17,300×g for analysis of tyrosinase activity in the extracellular exported melanosomal particulate fraction, and in the resultant supernatant media fraction. In some cases (Table 11), tyrosinase was also measured by an in situ assay wherein radiolabelled tyrosine was added directly to freshly replaced media of NHEM for a period of 24 hrs following a 5 day treatment period (Abdel-Malek, et al., 1992, J. Cell. Physiol. 150:416-425). […] Both 5 mM 5-NBene-2,2-DM and 25 mM 3,3-M-1,2-BD induced more tyrosinase in each of these assays and fractions than did 1,2-PG. IBMX (3-isobutyl-1-methyl-xanthine) provided as a positive control, induced as much tyrosinase as 5 mM 5-NBene-2,2-DM in the in situ assay, but less in cellular, extracellular particulate and media fractions (Table 11).
# [3] = test system: tyrosinase activity in S91 mouse melanoma cells; assay: Induction of tyrosinase activity in S91 cells; details: for relative melanogenic potency in S91 cells (in words): Table 19 data
# Experimental: Compounds were examined for their ability to induce tyrosinase activity in S91 mouse melanoma cells. […] Following treatments, cells were trypsinized, counted by Coulter, pelleted by centrifugation at 1000×g, and analyzed for tyrosinase activity using modifications of previously described procedures (Pomerantz, S. H., 1966, J. Biol. Chem. 241:161-168; Jara, et al., 1988, Pigment Cell Res. 1: 332-339.). Briefly, cell pellets were solubilized by sonicating for 5 seconds in 600 ul 50 mM phosphate buffer pH 6.8 containing 0.5% Triton-X100, followed by vortexing, incubation on ice for 30 min, and then revortexing. From this, 200 ul aliquots were combined with 200 ul of reaction mixture containing either 75 uM tyrosine, 75 uM L-Dopa, and 2 uCi L-[3,5-^3H]Tyrosine in 50 mM NaPO4 pH 6.8 (L-Dopa+), or, 75 uM tyrosine, and 2 uCi L-[3,5-^3H]Tyrosine in 50 mM NaPO4 pH 6.8 (L-Dopa−) and incubated 1 hr at 37° C. Reactions were stopped by addition of 400 ul 10% activated charcoal in 0.1N HCl and incubation on ice for 15 min. This mixture was centrifuged at 17,300×g for 5 min, and 400 ul supernatant was then filtered through a 0.22 uM GV Durapore centifugal filter unit (Millipore) by centrifuging at 17,300×g for 5 min. Filtrate was added to 4 ml Fisher Plus scintillation fluid and counted on a Hewlett Packard scintillation counter. Tyrosinase activity was calculated as dpm/hr/ug protein and dpm/hr/10^3 cells. Each sample was analyzed with and without L-Dopa, a necessary cofactor for tyrosinase (Pomerantz, S. H., 1966, J. Biol. Chem. 241:161-168; McLane, et al., 1987, Biochem. Biophys. Res. Commun. 145:719-725). All reported tyrosinase values are exclusive of counts that occurred in buffer blanks and L-dopa negative aliquots. Protein was determined on aliquots of cell lysate, extracellular particulate lysate or media by the Bradford Coomassie Blue method (Bradford, 1967, Anal. Biochem. 72:248-254) using Bio-Rad Protein Assay Kit I.
# [4] = range of concentrations up to a toxic dose
# [5] = 5 day treatment, concentrations as E130
# [6] = pair of replicates, concentrations as E130
# [7] = 300 mM PG-1,2, 25 mM 3,3-M-1,2-BD, 50 mM 1,2-cs-CPD, 5 mM 5-NBene-2,2-DM, 0.5 mM 2,3-Pyd, 0.1 mM IBMX, mean ±SE
molecule,measurement,setting,value
1-propanol,melanogenesis in S91 cells (≧2-fold increase = significant),[1]; [4],did not induce significant (≧2-fold increase) melanogenesis
"CC1CNCCN1S(=O)(=O)c1cccc2cnccc12 (stereo not shown) [H7, 1-[5-isoquinolinyl-sulfonyl]-2-methyl-piperazine, reference compound]",effect on melanogenesis induced by propylene glycol in S91 cells,[1],enhanced melanogenesis induced by propylene glycol
same,melanogenesis in S91 cells (in words),[1],induced melanogenesis
O=C1O[C@H]([C@@H](O)CO)C(O)=C1O [ascorbic acid],melanogenesis in S91 cells (≧2-fold increase = significant),[1]; [4],did not induce significant (≧2-fold increase) melanogenesis
CCCCCCCC/C=C\CCCCCCCC(=O)O [oleic acid],melanogenesis in S91 cells (≧2-fold increase = significant),[1]; [4],did not induce significant (≧2-fold increase) melanogenesis
CC(C)O [2-propanol],melanogenesis in S91 cells (≧2-fold increase = significant),[1]; [4],did not induce significant (≧2-fold increase) melanogenesis
"O[C@@H]1CCC[C@H]1O (relative stereo) [1,2-trans-Cyclopentanediol, 1,2-trans-cyclopentanediol]",Concentration Required for ≧2-fold Melanin Induction in S91 Cells,[1],50000 µM
"OCC1CC2CCC1C2 (stereo not shown) [2-NBaneM, 2-Norbornanemethanol]",Tyrosinase Cellular,"[2]; Black-Neonatal-NHEM, 1 mM",10863 dpm/hr/10^3 cells
same,Tyrosinase Cellular relative to Control,"[2]; Black-Neonatal-NHEM, 1 mM",1.10 X
same,Tyrosinase In Situ,"[2]; Black-Neonatal-NHEM, 1 mM",12.1 dpm/hr/10^3 cells
same,Tyrosinase In Situ relative to Control,"[2]; Black-Neonatal-NHEM, 1 mM",0.97 X
same,Tyrosinase Media relative to Control,"[2]; Black-Neonatal-NHEM, 1 mM",1.68 X
same,Tyrosinase Media,"[2]; Black-Neonatal-NHEM, 1 mM, media from 1 day treatment period",18.7 dpm/hr/10^3 cells
same,Tyrosinase Cellular,"[2]; Black-Neonatal-NHEM, 5 mM",17397 dpm/hr/10^3 cells
same,Tyrosinase Cellular relative to Control,"[2]; Black-Neonatal-NHEM, 5 mM",1.77 X
same,Tyrosinase In Situ,"[2]; Black-Neonatal-NHEM, 5 mM",12.8 dpm/hr/10^3 cells
same,Tyrosinase In Situ relative to Control,"[2]; Black-Neonatal-NHEM, 5 mM",1.02 X
same,Tyrosinase Media relative to Control,"[2]; Black-Neonatal-NHEM, 5 mM",3.36 X
same,Tyrosinase Media,"[2]; Black-Neonatal-NHEM, 5 mM, media from 1 day treatment period",37.3 dpm/hr/10^3 cells
same,Tyrosinase Cellular,"[2]; White-Adult-NHEM, 1 mM",15257 dpm/hr/10^3 cells
same,Tyrosinase Cellular relative to Control,"[2]; White-Adult-NHEM, 1 mM",1.09 X
same,Tyrosinase In Situ,"[2]; White-Adult-NHEM, 1 mM",7.05 dpm/hr/10^3 cells
same,Tyrosinase In Situ relative to Control,"[2]; White-Adult-NHEM, 1 mM",1.27 X
same,Tyrosinase Media relative to Control,"[2]; White-Adult-NHEM, 1 mM",1.11 X
same,Tyrosinase Media,"[2]; White-Adult-NHEM, 1 mM, media from 1 day treatment period",29.2 dpm/hr/10^3 cells
same,Tyrosinase Cellular,"[2]; White-Adult-NHEM, 5 mM",16077 dpm/hr/10^3 cells
same,Tyrosinase Cellular relative to Control,"[2]; White-Adult-NHEM, 5 mM",1.15 X
same,Tyrosinase In Situ,"[2]; White-Adult-NHEM, 5 mM",6.18 dpm/hr/10^3 cells
same,Tyrosinase In Situ relative to Control,"[2]; White-Adult-NHEM, 5 mM",1.11 X
same,Tyrosinase Media relative to Control,"[2]; White-Adult-NHEM, 5 mM",1.33 X
same,Tyrosinase Media,"[2]; White-Adult-NHEM, 5 mM, media from 1 day treatment period",48.1 dpm/hr/10^3 cells
same,"induction of tyrosinase in S91 cells compared with 5-NBene-2,2-DM (FIG. 2)",[3],Lesser induction
"CC(C)Cn1c(=O)n(C)c(=O)c2[nH]cnc21 [IBMX, 3-isobutyl-1-methylxanthine, reference compound]",Tyrosinase In Situ,"[2]; 5 day treatment, 300 mM 1,2-PG, 25 mM 3,3-M-1,2-BD, 5 mM 5-NBene-2,2-DM, 0.1 mM IBMX",25.3 dpm/hr/10^3 Cells and 26.1 dpm/hr/10^3 Cells
same,Tyrosinase 200 g Partic,[2]; [5],2189 dpm/hr/10^3 Cells and 1834 dpm/hr/10^3 Cells
same,Tyrosinase Cellular,[2]; [5],10910 dpm/hr/10^3 Cells and 11737 dpm/hr/10^3 Cells
same,Tyrosinase 17300 g Partic,"[2]; Post 200 X g, 5 day treatment, concentrations as E130",220 dpm/hr/10^3 Cells and 260 dpm/hr/10^3 Cells
same,Tyrosinase Media,"[2]; Post 17300 X g, 5 day treatment, concentrations as E130",2698 dpm/hr/10^3 Cells and 2935 dpm/hr/10^3 Cells
same,"Tyrosinase 200 g Partic, relative to controls (in parentheses)",[2]; [6],(5.86X)
same,"Tyrosinase 17300 g Partic, relative to controls (in parentheses)",[2]; [6],(2.10X)
same,"Tyrosinase Cellular, relative to controls (in parentheses)",[2]; [6],(1.11X)
same,"Tyrosinase In Situ, relative to controls (in parentheses)",[2]; [6],(1.62X)
same,"Tyrosinase Media, relative to controls (in parentheses)",[2]; [6],(1.81X)
same,Tyrosinase dpm/hr 10^3 Cells,[3]; [7],765 ± 53 dpm/hr/10^3 Cells
same,Tyrosinase dpm/hr ug Protein,[3]; [7],2161 ± 41 dpm/hr/ug Protein
"OC1OCCOC1O (stereo not shown) [1,4-Dioxane-2,3-Diol, 1,4-dioxane-2,3-diol]",Concentration Required for ≧2-fold Melanin Induction in S91 Cells,[1],500 µM
CNC[C@H](O)[C@@H](O)[C@H](O)[C@H](O)CO [N-methyl-D-glucamine],melanogenesis in S91 cells (≧2-fold increase = significant),[1]; [4],did not induce significant (≧2-fold increase) melanogenesis
O=CC[C@H](O)[C@H](O)CO [2-deoxy-D-ribose],melanogenesis in S91 cells (≧2-fold increase = significant),[1]; [4],did not induce significant (≧2-fold increase) melanogenesis
"CCCCCCCCCCCCC/C=C/[C@@H](O)[C@@H](N)CO [D-sphingosine, reference compound]",effect on melanogenesis induced by propylene glycol in S91 cells,[1],enhanced melanogenesis induced by propylene glycol
same,melanogenesis in S91 cells (in words),[1],induced melanogenesis
"Bisindolylmaleimide [GF109203X, reference compound]","effect on induction of tyrosinase by 5-NBene-2,2-DM in S91 cells (in words)",[3],"augmentation of basal and 5-NBene-2,2-DM-induced tyrosinase levels"
same,Tyrosinase Relative to Control,[3]; 0.1 uM GF109203X,2.6
same,Tyrosinase dpm/hr/ug Protein,[3]; 0.1 uM GF109203X,1025 dpm/hr/ug Protein
same,Tyrosinase Relative to Control,[3]; 1 uM GF109203X,6.1X
same,Tyrosinase dpm/hr/ug Protein,[3]; 1 uM GF109203X,2407 dpm/hr/ug Protein
"O=C1C(Nc2ccccc2)=CC(=O)c2ncccc21 [LY83583, 6-anilino-5,8-quinolinequinone, reference compound]","effect on induction of melanogenesis by 5-NBene-2,2-DM in S91 cells (in words)",[3],"reduced induction of melanogenesis by 5-NBene-2,2-DM"
O=c1[nH]cc(CO)c(=O)[nH]1 [hydroxymethyl uracil],melanogenesis in S91 cells (≧2-fold increase = significant),[1]; [4],did not induce significant (≧2-fold increase) melanogenesis
"OC1CCCC(O)C1 (stereo not shown) [1,3-cyclohexanediol]",melanogenesis in S91 cells (≧2-fold increase = significant),[1]; [4],did not induce significant (≧2-fold increase) melanogenesis
"methyl-5-norbornene-2,3-dimethanol",Fold Induction of Tyrosinase Relative to Controls,[3]; 0.5 mM (Table 16),6.0X
same,Fold Induction of Tyrosinase Relative to Controls,[3]; 1 mM (Table 16),8.1X
same,Fold Induction of Tyrosinase Relative to Controls,[3]; 2.5 mM (Table 16),0.8X
"CC1(C)C2CC=C(CO)[C@@H]1C2 [(1R)-(−)-myrtenol, (1R)-2-pinen-10-ol]",Fold Induction of Tyrosinase Relative to Controls,[3]; 0.5 mM (Table 19),13.6X
same,Fold Induction of Tyrosinase Relative to Controls,[3]; 1 mM (Table 19),17.6X
same,Fold Induction of Tyrosinase Relative to Controls,[3]; 2.5 mM (Table 19),2.2X
"CC1(C)C2CCC1(C)C(O)C2O (stereo not drawn) [2,3-cis/exo-bornanediol]",Fold Induction of Tyrosinase Relative to Controls,[3]; 0.5 mM (Table 19),10.2X
same,Fold Induction of Tyrosinase Relative to Controls,[3]; 1 mM (Table 19),28.5X
same,Fold Induction of Tyrosinase Relative to Controls,[3]; 2.5 mM (Table 19),101X
same,relative melanogenic potency in S91 cells (in words),[3],"more than twice as potent as 2,3-trans-bornanediol"
"OC1C2CCC(C2)C1O (stereo not drawn) [2,3-c/e-NBaneD, 2,3-cis/exo-Norbornanediol]","induction of tyrosinase in S91 cells compared with 5-NBene-2,2-DM (FIG. 2)",[3],Lesser induction
"CC1(C)[C@@H]2CC(=O)[C@@](C)(O)[C@H]1C2 [(1S,2S,5S,)-2-hydroxy-3-pinanone]",Fold Induction of Tyrosinase Relative to Controls,[3]; 1 mM (Table 19),4.1X
same,Fold Induction of Tyrosinase Relative to Controls,[3]; 2.5 mM (Table 19),37.1X
same,Fold Induction of Tyrosinase Relative to Controls,[3]; 5 mM (Table 19),94.9X
same,relative melanogenic potency in S91 cells (in words),[3],"about half as potent as (1R, 2R, 3S, 5R)-(−)-pinanediol"
O=C(O)C(O)C(O)C(=O)O (stereo not shown) [tartaric acid],melanogenesis in S91 cells (≧2-fold increase = significant),[1]; [4],did not induce significant (≧2-fold increase) melanogenesis
CCCCCCCCCCCCN1CCCCCC1=O [Azone®],melanogenesis in S91 cells (≧2-fold increase = significant),[1]; [4],did not induce significant (≧2-fold increase) melanogenesis
CCCC[N+](CCCC)(CCCC)CCCC.[Cl-] [tetrabutylammonium chloride],melanogenesis in S91 cells (≧2-fold increase = significant),[1],did not induce significant (≧2-fold increase) melanogenesis
OCC(CO)(CO)CO [pentaerylthritol],Fold Induction of Tyrosinase Relative to Controls,[3]; 1 mM (Table 16),1.2X
same,Fold Induction of Tyrosinase Relative to Controls,[3]; 2.5 mM (Table 16),1.9X
same,Fold Induction of Tyrosinase Relative to Controls,[3]; 5 mM (Table 16),1.5X
"CC1(C)N([O])C(c2ccccc2)=[N+]([O-])C1(C)C [PTIO, 2-phenyl-4,4,5,5-tetramethylimidazoline-1-oxyl-3-oxide, reference compound]","effect on induction of melanogenesis by 5-NBene-2,2-DM in S91 cells (in words)",[3],"reduced induction of melanogenesis by 5-NBene-2,2-DM"
"CC1CCC(C(C)(C)O)C(O)C1 (stereo not drawn) [cis-p-menthane-3,8-diol]",Fold Induction of Tyrosinase Relative to Controls,[3]; 0.5 mM (Table 19),1.6X
same,Fold Induction of Tyrosinase Relative to Controls,[3]; 1 mM (Table 19),3.0X
same,Fold Induction of Tyrosinase Relative to Controls,[3]; 2.5 mM (Table 19),17.1X
same,Fold Induction of Tyrosinase Relative to Controls,[3]; 5 mM (Table 19),11.6X
"C[C@]12CC[C@@H]3c4ccc(O)cc4CC[C@H]3[C@@H]1CC[C@@H]2O [β-Estradiol, β-estradiol, reference compound]",Concentration Required for ≧2-fold Melanin Induction in S91 Cells,[1],500 µM
"CC(O)(CO)c1ccccc1 (stereo not shown) [2-phenyl-1,2-propanediol]",melanogenesis in S91 cells (≧2-fold increase = significant),[1]; [4],did not induce significant (≧2-fold increase) melanogenesis
